Reference: PMC10288505, “Photoswitchable Calixarene Activators for Controlled Peptide Transport across Lipid Membranes” (Journal of the American Chemical Society, 2023)
“And” between values parts separate entries of the source, which are not always exact repeats. Identical values can stand only once. Like-named read-outs stand apart in the source and are kept apart here.

Assay: Carboxyfluorescein (CF) dye efflux assay, counterion-activated peptide transport
Format: biochemical
Details: for TE (transport efficiency), R6 transport / TE (transport efficiency), R8 transport: TE = Ymax × pEC50/f, pEC50 = −log EC50 (in mM), f = 20.6; for TE (transport efficiency), R6 transport: R6 4 μM; for TE (transport efficiency), R6 transport / TE (transport efficiency), R8 transport / Ymax (maximal CF release relative to Triton X-100 lysis), R6 transport / EC50 / Ymax (maximal CF release relative to Triton X-100 lysis), R8 transport: EYPC-LUV⊃CF 15 μM; for TE (transport efficiency), R8 transport: R8 4 μM; for Ymax (maximal CF release relative to Triton X-100 lysis), R6 transport / EC50 / Ymax (maximal CF release relative to Triton X-100 lysis), R8 transport: 5 mM phosphate buffer pH 7.3, Hill fit, triplicate; for EC50 / Activation of CF release in the presence of peptide R4: 50 mM CF inside; for EC50: fluorescence; for Activation of CF release in the presence of peptide R4: R4 5 µM, EYPC-LUV⊃CF 15 µM
Experimental: Dynamic light scattering (DLS) control experiments also confirmed liposome integrity under the experimental conditions employed in the different membrane transport assays, which ruled out potential membrane disruption interferences (Figure S34). Established dye efflux assays were performed using the carboxyfluorescein (CF) dye encapsulated at self-quenching concentrations in egg phosphatidylcholine large unilamellar vesicles (EYPC-LUV⊃CF).[26],[27],[29],[45] In these experiments, the fractional release of trapped CF (or fractional transport activity, Y), triggered by the addition of counterion activators and peptides, is monitored by time-resolved fluorescence spectroscopy and calibrated by the addition of Triton X-100 (Figure S35).
The studies were performed with both 1 and 2 in the E and Z configurations in the presence of fixed concentrations of liposomes and cationic peptides. […] Likewise, the addition of peptides alone or nonbinding anionic peptides in the presence of calixarene activators also results in unmodified fluorescence signal, confirming that the formation of the calixarene–peptide complex is critical to activate the transport process. […] This approach retrieves the Ymax (i.e., maximal CF release relative to liposome lysis after the addition of Triton X-100) and EC50 (i.e., the effective counterion activator concentration required to reach Ymax/2) as the relevant parameters to measure the efficiency of the counterion activators.
10 mg of L-α-phosphatidylcholine (95%) (Egg, Chicken) were dissolved in 1 ml of chloroform. The solution was evaporated under a nitrogen stream, under rotation, to form a thin lipid film in the bottom of the flask. This film was left to dry under vacuum for a minimum of 1h. After drying the maximum of the solvent from the solution, 1 ml of the solution to incorporate (CF 50 mM in 5 mM phosphate buffer for EYPC-LUV⊃CF and only phosphate buffer 5 mM pH 7.4, for the LUVs with no encapsulation) was added to the thin film and the lipids were left to resuspend under agitation, in a 40 °C bath, for 30 min. The resuspended lipid mixture was then submitted to 10 freeze-thaw cycles and extruded 23 times through a 100 nm membrane, to obtain uniform, monodisperse liposomes with high encapsulation of the added solution. The liposomes were then separated from the molecules that were not encapsulated by size-exclusion chromatography, with Sephadex G25 (V = 37 ml), obtaining two fractions, one with high turbidity and a clear one, corresponding to the encapsulated and free sensor, respectively. The samples were then analyzed by Dynamic Light Scattering (DLS) to determine the average size of the liposomes in solution and their size distribution.
All assays were done up to 48h after the preparation of the vesicles to ensure their integrity and majority of CF still encapsulated.
EC50 and Ymax calculation. For the measurement of 1 and 2’s effectiveness as a counterion activators of polyarginine transport, dye efflux assays were executed at several counterion activator concentrations, while maintaining the concentration of peptide and LUV fixed as indicated in the respective figures.
For the dye efflux assays, CF emission was followed throughout the assay, with consecutive additions of the elements of the solution – the initial solution presented only the vesicles at a fixed concentration. A counterion activator aliquot is then added according to the concentration to be tested and the emission is measured to confirm that CF remains encapsulated; some counterion activators can act as detergents at sufficient concentrations. Finally, the peptide in question is added and fluorescence spectra are measured […]
until the emission stabilizes and a maximum of release is reached. If the counterion activator has the capacity to activate the transport, CF should be co-transported to the exterior of the liposome with the influx of the counterion-peptide complex. Finally, Triton X-100 is added to the solution to dissolve the […]

[1] = peptide R6 4 μM, read-out: EC50 (effective counterion activator concentration to reach Ymax/2), R6 transport
[2] = peptide R8 4 μM, read-out: EC50 (effective counterion activator concentration to reach Ymax/2), R8 transport

Row | SMILES | TE (transport efficiency), R6 transport | TE (transport efficiency), R8 transport | Ymax (maximal CF release relative to Triton X-100 lysis), R6 transport (peptide R6 4 μM) | EC50 [1] | Ymax (maximal CF release relative to Triton X-100 lysis), R8 transport (peptide R8 4 μM) | EC50 [2] | Activation of CF release in the presence of peptide R4
1 | O=S(=O)([O-])c1cc2c(O)c(c1)Cc1cc(S(=O)(=O)[O-])cc(c1O)Cc1cc(S(=O)(=O)[O-])cc(c1OCCCCCCOc1ccc(/N=N/c3ccccc3)cc1)Cc1cc(S(=O)(=O)[O-])cc(c1O)C2.[Li+].[Li+].[Li+].[Li+] [E-1] | 19.4 ± 0.2 | 20.3 ± 0.4 | 96% and 96 ± 1% | 72 ± 5 nM | 91 ± 2% | 24 ± 2 nM | –
2 | CCCCc1ccc(/N=N/c2ccc(OCCCOc3c4cc(S(=O)(=O)[O-])cc3Cc3cc(S(=O)(=O)[O-])cc(c3O)Cc3cc(S(=O)(=O)[O-])cc(c3O)Cc3cc(S(=O)(=O)[O-])cc(c3O)C4)cc2)cc1.[Li+].[Li+].[Li+].[Li+] [E-2] | 20.2 ± 0.2 | 22.2 ± 0.3 | 96% and 96 ± 1% | 45 ± 2 nM | 93 ± 2% | 11 ± 1 nM | –
3 | CCCCc1ccc(/N=N\c2ccc(OCCCOc3c4cc(S(=O)(=O)[O-])cc3Cc3cc(S(=O)(=O)[O-])cc(c3O)Cc3cc(S(=O)(=O)[O-])cc(c3O)Cc3cc(S(=O)(=O)[O-])cc(c3O)C4)cc2)cc1.[Li+].[Li+].[Li+].[Li+] [Z-2] | 16.6 ± 0.3 | 20.8 ± 0.4 | 94% and 94 ± 2% | 227 ± 17 nM | 94 ± 2% | 30 ± 4 nM | no activation was observed
4 | O=S(=O)([O-])c1cc2c(O)c(c1)Cc1cc(S(=O)(=O)[O-])cc(c1O)Cc1cc(S(=O)(=O)[O-])cc(c1OCCCCCCOc1ccc(/N=N\c3ccccc3)cc1)Cc1cc(S(=O)(=O)[O-])cc(c1O)C2.[Li+].[Li+].[Li+].[Li+] [Z-1] | 10.8 ± 0.8 | 13.3 ± 0.4 | 63% and 63 ± 5% | 291 ± 32 nM | 69 ± 2% | 99 ± 3 nM | no activation was observed
